System: HaCaT human keratinocytes
Assay: Affymetrix GeneChip microarray, transcriptional response to β-carotene and/or UVA
Format: cell-based
Settings: UVA and β-carotene 1.5 μM
Procedure: The cell culture experiments were carried out as described. Briefly, a subclone of passage 65 HaCaT keratinocytes, selected for differentiation capacity, was used at passages 16 to 23 after subcloning. 2×10^5 cells were seeded per 60 millimeter dish. Starting the following day, the cells were pretreated for 2 days with β-carotene at 1.5 μM, a typical concentration in human plasma after moderate dietary supplementation)
β-carotene-containing medium was prepared as follows. Fresh all-E-β-carotene (DSM Nutritional Products, Kaiseraugst, Switzerland) stock solution in THF (containing 0.025% BHT; Fluka Chemie A G, Switzerland) was diluted 1:2 with ethanol and added to cell culture medium to a final concentration of 1.5 μM β-carotene. The solvent concentration in the medium was 0.5% for all treatments. β-carotene-containing medium was prepared fresh for the daily medium changes.
On day 3 of the experiment, the cells were irradiated with a Hönle sun lamp Sol 500 (270 kJ/m^2; Dr. Hönle, Germany).
Five independent, factorially designed cell irradiation experiments were analyzed by microarray hybridization. For each experiment, one chip was hybridized per treatment condition. GeneChip® analysis was done as described in [132], which is incorporated by reference, as if recited in full herein. Gene regulation by β-carotene and/or UVA was calculated relative to placebo.
Changes in gene expression were included in further analysis only if the change factor was […], and if unpaired t-tests yielded p values≦0.05. Upregulations by a […] are labeled bold, downregulations by a change factor of […] are labeled bold italics. (Table 1) To identify the pathways affected by the treatments functional information on the genes was retrieved from public literature databases.

SMILES: CC1=C(/C=C/C(C)=C/C=C/C(C)=C/C=C/C=C(C)/C=C/C=C(C)/C=C/C2=C(C)CCCC2(C)C)C(C)(C)CCC1 [β-carotene, All-E-β-carotene]
- 5-aminolevulinate synthase (Y00451) change factor: 0.41
- AAC11 (U83857) change factor: −0.05
- AP-2α (M36711) change factor: −0.67
- ATF4; activating transcription factor 4 (AL022312) change factor: 0.96
- BAXγ (L22475) change factor: −0.34
- BAXδ (U19599) change factor: 0.67
- BMP2a; bone morphogenetic protein 2a (bmp-2a) (M22489) change factor: 0.16
- BPAG1; bullous pemphigoid antigen (M69225) change factor: 0.12
- BUB1; mitotic checkpoint kinase (AF053305) change factor: −0.81
- C-FOS (V01512) change factor: 2.49
- C-FOS (V01512, second entry) change factor: 1.36
- C-JUN (J04111) change factor: 0.93
- C/EBPβ; NF-IL6 (X52560) change factor: 0.83
- C/EBPγ (U20240) change factor: 0.71
- C/EBPδ; NF-IL6-β (M83667) change factor: 0.31
- CDK activating kinase (X77743) change factor: 0.57
- CDK-inhibitor p57KIP2 (KIP2) mrna (U22398) change factor: 0.79
- CENP-A; centromere protein-A (U14518) change factor: −1.82
- CENP-E; centromere protein-E (Z15005) change factor: −1.44
- CENP-F; mitosin (U30872) change factor: −1.22
- CEP110; centriole associated protein (AF083322) change factor: −4.18
- CIP2; CDKN3 (L25876) change factor: −0.81
- CLARP; CFLAR, alternatively spliced (AF005775) change factor: −0.62
- COUP-TF II; ARP1; apoA1 regulatory protein (M64497) change factor: 0.81
- COX-2, cyclooxygenase-2 (U04636) change factor: 0.2
- CRADD; death domain containing protein (U84388) change factor: −0.87
- DKK-1; dickkopf-1 (AB020315) change factor: 1.4
- DNA ligase III (X84740) change factor: −0.71
- DNA polymerase α-subunit (X06745) change factor: −0.63
- DNA primase (subunit p58) (X74331) change factor: −0.41
- DNA-PK, catalytic subunit (U47077) change factor: −1.06
- DSC2; desmocollin type 2a and 2b (X56807) change factor: −0.29
- DUSP5 (U15932) change factor: 2.84
- DUSP7 (X93921) change factor: 0.99
- EGFR; precursor of epidermal growth factor receptor (X00588) change factor: −0.69
- ENDOGL-2 (AB020735) change factor: 0.41
- ERBB3 precursor; similar to (H06628) change factor: −0.78
- ERCC5; excision repair protein (L20046) change factor: −0.95
- ERF-2 (X78992) change factor: 0.99
- FGFR2; FGF receptor 2 (M87770) change factor: −0.48
- FGFR3; FGF receptor (M64347) change factor: −2.58
- FRA-1 (X16707) change factor: 0.71
- FRA-2 (X16706) change factor: −0.13
- GADD34 (U83981) change factor: 2.62
- GADD153 (S62138) change factor: 7.64
- GDF-1; growth/differentiation factor 1 (gdf-1) (M62302) change factor: −0.43
- GEM (U10550) change factor: 3.91
- HB-EGF; heparin-binding egf-like growth factor (M60278) change factor: 3.32
- HER3; epidermal growth factor receptor (her3) (M34309) change factor: −1.12
- HER3; epidermal growth factor receptor (her3) (M34309, second entry) change factor: −1.56
- HM74; PAR1-related (D10923) change factor: −0.55
- HOXA7 (AJj005814) change factor: −0.52
- HOXC6 (S82986) change factor: −0.82
- HOXD4 (X59373) change factor: −0.76
- ID1 (X77956) change factor: −2.43
- ID1 (X77956, second entry) change factor: −4.7
- ID3; HEIR1 (AL021154) change factor: −4.35
- ID-2H (D13891) change factor: −2.68
- ID-4 (AL022726) change factor: −0.49
- IEX-1 (S81914) change factor: 0.91
- IFIT1; IFI56 (M24594) change factor: −0.61
- IFIT1; IFI56 (M24594, second entry) change factor: −0.71
- IFIT2; ISG-54K (M14660) change factor: 1.17
- IFIT2; ISG-54K (M14660, second entry) change factor: 0.58
- IFIT4; IFI60; cig5; RIGG (AF026941) change factor: 5.46
- IGF-BP 3; insulin-like growth factor-binding protein-3 gene (M35878) change factor: 1.64
- IGF-BP 3; insulin-like growth factor-binding protein-3 gene (M35878, second entry) change factor: 1.73
- IL6; Interleukin 6; IFNβα2a (X04430) change factor: 2.29
- IL18; IGIF (IFNγ inducing factor) (D49950) change factor: −0.18
- ILK; integrin-linked kinase (U40282) change factor: −0.51
- IRF-1; interferon regulatory factor 1 (L05072) change factor: 0.29
- IRF-7b; interferon regulatory factor 7b (U53831) change factor: 0.49
- IRF-9; p48; ISGF3γ (M97935) change factor: −0.67
- JUNB (M29039) change factor: −0.72
- JUNB (X51345) change factor: −0.7
- JUND (X56681) change factor: 3.2
- JUND (X56681, second entry) change factor: 1.83
- JUND (X56681, third entry) change factor: 1.66
- K-RAS (M54968) change factor: −0.64
- KINESIN-LIKE 2; HSET (AL021366) change factor: −0.72
- KINESIN-LIKE 2; HSET (D14678) change factor: −0.72
- KINESIN-LIKE 2; HSET (D14678, second entry) change factor: −1.15
- KINESIN-LIKE 5; KNSL5; MKLP-1; mitotic kinesin-like protein-1 (X67155) change factor: −1.04
- KINESIN-LIKE 6; KNSL6; MCAK; mitotic centromere-associated kinesin (U63743) change factor: −1.61
- KINESIN_LIKE 1; KNSL1; HKSP; EG5 (U37426) change factor: −0.92
- KLF4; EZF (epithelial Zn finger) (U70663) change factor: 3.46
- KRS-2; stress responsive serine/threonine protein kinase (U60207) change factor: −0.35
- KU (p70/p80) (M30938) change factor: −0.64
- LIM kinase 2 (limk-2) (D45906) change factor: −0.66
- Lekti (AJ228139) change factor: 0.75
- MAD3L; mitotic checkpoint kinase (AF053306) change factor: −2.45
- MAF-F (AL021977) change factor: 1.71
- MAP kinase phosphatase (mkp-2) (U48807) change factor: 1.12
- MAPK9; JNK2 (U09759) change factor: −0.57
- MAPK14; p38; csaids binding protein (csbp1) (L35263) change factor: −0.53
- MAPKK3b; MKK3b (D87116) change factor: 0.62
- MAPKK MEK5b (U71087) change factor: −0.7
- MAPKKK5; ASK1 (U67156) change factor: −4.7
- MEIS2 (AF017418) change factor: −1.3
- MMP10 (X07820) change factor: 2.2
- MMP-1 (M13509) change factor: −0.22
- MMP-3 (X05232) change factor: 0.93
- N-RAS (X02751) change factor: −0.01

Reference: US20160304957A1, “TREATMENT AND MODULATION OF GENE EXPRESSION AND SKIN AGING” (DSM NUTRITIONAL PRODUCTS LTD., priority 2006, published 2016)
